# Data as given in patent US20170009228A1, “BIOLOGICAL MATERIALS AND THERAPEUTIC USES THEREOF” (IMPERIAL INNOVATIONS LIMITED, priority 2014, published 2017).
# Tests used:
# TLR2 and TLR4 null mice = assay: Intra-articular injection of FBG in TLR2 and TLR4 null mice; assay type: in vivo; details: 1 μg FBG, 3 days
# Protocol: Representative sections of the knee joint of TLR2 (a) and TLR4 (b) null mice 3 days after intra-articular injection of 1 μg FBG. Sections are stained with hemotoxylin and eosin. Magnification ×10 (n=5 mice per genotype). (c) Quantification of joint inflammation, bone erosion, cartilage surface erosion and chondrocyte death in the knee joints of TLR2 (white bars) and TLR4 (black bars) null mice 3 days after intra-articular injection of 1 μg FBG. Data represent the mean+/−SD (n=5 per genotype).
# Homozygous TLR2 and TLR4 deficient mice on a C57BL/6 background (an inbred strain of mice with a black coat) were obtained from B&K Universal (Hull, UK) Hoshino (1999) and Takeuchi (1999). Homozygous MyD88 deficient mice on a C57BL/6 background were provided by the Sanger Institute (Cambridge, UK). Age matched congenic inbred wild type C57B/L6 mice were obtained from Charles River (Margate, UK). For isolation of mouse embryo fibroblasts one female aged 8-10 weeks was mated with two males aged 8-10 weeks. For isolation of bone marrow derived macrophages mice were female and between 10-12 weeks of age at the time of experimentation.
# Coronal tissue sections (4 μm) were cut at 7 depths throughout the joint; 80 μm apart and stained with hematoxylin and eosin or Safranin-O to assess joint pathology. Histopathologic changes were scored using the following parameters as described in Van Lent (2006). […]
# MyD88 = assay: FBG stimulation of RA synovial fibroblasts infected with adenovirus expressing dominant negative MyD88; assay type: cell-based, human; details: 1 μM FBG
# Description: Recombinant, replication-deficient adenoviral vectors encoding wild type MyD88 (AdMyD88wt), dominant-negative forms of MyD88 (AdMyD88dn) and the GFP control (AdGFP) were constructed in-house. A description of the synthesis of these viruses is in Andreakos (2004). All viruses used in this study are E1/E3 deleted, belong to the Ad5 serotype. Viruses were propagated in 293 human embryonic kidney cells, purified by ultracentrifugation through two cesium chloride gradients, and viral titers determined by plaque assay as previously described (Sacre (2007)).
# For adenoviral gene transfer experiments, human RA synovial fibroblasts were incubated with adenoviral vectors at a multiplicity of infection of 100, washed after 2 hours, cultured in complete medium for 24 hours, then stimulated for 24 hours, after which time supernatants were collected.
# (§1) Supernatants were subsequently examined for the presence of the cytokines TNF-α, IL-6, and IL-8 by enzyme-linked immunosorbent assay (ELISA) according to the manufacturer's instructions. Absorbance was read on a spectrophotometric ELISA plate reader (Labsystems Multiscan Biochromic, Vantaa, Finland) and analyzed using the Ascent software program (Thermo Labsystems, Altrincham, UK).
# [1] = test system: synovial membranes from RA patients; assay: Cytokine synthesis in RA synovial membrane cells stimulated with FBG; assay type: cell-based, human; details: FBG 1.0-0.01 μM, 24 h
# Description: RA membrane cells (representing a mixed population of all synovial cell types) were isolated from synovial membranes obtained from patients undergoing joint replacement surgery as previously described (Brennan (1989)). RA synovial fibroblasts were isolated from the mixed population of RA membrane cells as previously described (Brennan (1989)). The study was approved by the local Trust ethics committee (Riverside NHS Research Committee), and waste tissue (synovium after joint replacement surgery) was obtained only after receiving signed informed consent from the patient and anonymyzing the tissue to protect patient identity.
# Immediately after isolation, RA membrane cells and macrophages were cultured at 1×10^5 cells/well in RPMI 1640 containing 10% (v/v) FBS and 100 U/ml (Units/ml) penicillin/streptomycin in 96-well tissue culture plates for 24 hours before stimulation. […]
# as §1
# TLR2 = assay: Cytokine synthesis in embryonic fibroblasts or macrophages from TLR2 deficient mice; assay type: cell-based
# Protocol: MEFs express high levels of mRNA of all 9 murine TLRs and are specifically and highly responsive to TLR ligand activation. […] MEFs were isolated from d13 embryos harvested from age-matched, pregnant female wild type, TLR2, TLR4 and null mice (as described in Todaro (1963)). Fibroblasts were cultured at 2×10^4 cells/well in DMEM containing 10% (v/v) FBS and 100 U/ml penicillin/streptomycin in 96-well tissue culture plates for 24 hours before stimulation.
# BMDMs were derived by aspirating the femurs of age matched female wild type, TLR2 and TLR4 null mice as described in Butler (1999)) and culturing the cells for 7 days in DMEM, 20% (v/v) FBS, 10 ml/L (v/v) antibiotic-antimycotic solution PSA, 50 μM β-Mercaptoethanol and 10 ng/ml M-CSF. Macrophages were then cultured at 1×10^5 cells/well in DMEM, 20% (v/v) FBS, 10 ml/L (v/v) antibiotic-antimycotic solution PSA, 50 μM β-Mercaptoethanol in 96-well tissue culture plates for 24 hours before stimulation.
# Cells were incubated for 24 hours at 37° C. with the indicated doses of tenascin-C and recombinant tenascin-C fragments (1.0 μM-1.0 nM). Cells were also stimulated where indicated with LPS (1 ng/ml for human macrophages, 10 ng/ml for human fibroblasts, RA membrane cells and HEKs, 100 ng/ml for MEFS and BMDMs and 10 ng/ml for HEKS), PAM3 (10 ng/ml for human macrophages, human fibroblasts, and HEKs, 100 ng/ml for MEFs and BMDMs), murine IL-1 (5 ng/ml for MEFS) and murine TNF-α (100 ng/ml for MEFS). Unless specifically stated otherwise rough LPS was used for in vitro studies.
# as §1
# wild type mice = assay: Intra-articular injection of FBG in wild type mice, knee joint histology; assay type: in vivo
# Protocol: Wild type mice were anesthetized by intraperitoneal injection of 150 μl of Hypnorm diluted 1:10 in sterile water and then injected with 100 ng, 1 or 3 μg FBG in 10 μl of sterile PBS into the right knee joint using a sterile 33-gauge microcannula. Control mice received an injection of 10 μl PBS alone or were not injected.
# On days 3 and 7, mice were euthanized, the knee joints were excised and fixed in 10% (volume/volume) buffered formalin, decalcified, with 10% EDTA and processed to paraffin.
# Coronal tissue sections (4 μm) were cut at 7 depths throughout the joint; 80 μm apart and stained with hematoxylin and eosin or Safranin-O to assess joint pathology.
# Inflammation (the influx of inflammatory cells into synovium (infiltrate) and the joint cavity (exudates), was graded using an arbitrary scale from 0 (no inflammation) to 3 (severe inflammation). Chondrocyte death was determined as the percentage of cartilage area containing empty lacunae in relation to the total area. Cartilage surface erosion was determined as the amount of cartilage lost in relation to the total cartilage area. Bone destruction was determined in 10 different areas of the total knee joint section. Destruction was graded on a scale of 0 (no damage) to 3 (complete loss of bone structure). Histological analysis was performed by an investigator who was blinded to the experimental groups. The mean score for each animal in an experimental group was calculated by averaging the histopathologic scores in at least 5 section depths per joint.
# [2] = 1 μg FBG, 3 days after injection
substance,measurement,setting,value
"FBG: recombinant fibrinogen-like globe, 227 amino acid globular domain at the C terminal of tenascin-C",joint inflammation,TLR2 and TLR4 null mice; TLR2 null mice,able to induce joint inflammation
same,joint inflammation,TLR2 and TLR4 null mice; TLR4 null mice,not in TLR4 null mice
same,FBG induction of IL-6,MyD88,abolished
same,"synthesis of IL-6, IL-8 and TNF-α",[1],further enhanced
same,cytokine synthesis,TLR2,unaffected
same,inflammation and proteoglycan loss,wild type mice; 100 ng FBG intra-articular,No inflammation or proteoglycan loss
same,knee joint histology,"wild type mice; 1 μg FBG intra-articular, 3 days","inflammatory cell infiltration (FIG. 6f), mild synovitis, pannus formation (FIG. 6g) and proteoglycan loss"
same,histological quantification: cartilage surface erosion and bone damage,wild type mice; [2],modest amount
same,"histological quantification: cellular infiltrate, exudate and chondrocyte death",wild type mice; [2],high levels
same,knee joint histology,wild type mice; 3 μg FBG intra-articular,A similar response
same,joint inflammation,"wild type mice; wild type mice, intra-articular, 100 ng, 1 or 3 μg",transient and dose dependent stimulation of joint inflammation
